Measurements reported in ChEMBL document CHEMBL1821577, “Discovery of GSK1997132B a novel centrally penetrant benzimidazole PPARγ partial agonist” (Bioorg Med Chem Lett, 2011).

Key:
[1] = target: T1, Peroxisome proliferator-activated receptor gamma (Homo sapiens, UniProt P37231); experiment: Partial agonist activity at human PPARgamma by luciferase reporter gene assay; format: functional
T1 sequence (P37231 whole entry): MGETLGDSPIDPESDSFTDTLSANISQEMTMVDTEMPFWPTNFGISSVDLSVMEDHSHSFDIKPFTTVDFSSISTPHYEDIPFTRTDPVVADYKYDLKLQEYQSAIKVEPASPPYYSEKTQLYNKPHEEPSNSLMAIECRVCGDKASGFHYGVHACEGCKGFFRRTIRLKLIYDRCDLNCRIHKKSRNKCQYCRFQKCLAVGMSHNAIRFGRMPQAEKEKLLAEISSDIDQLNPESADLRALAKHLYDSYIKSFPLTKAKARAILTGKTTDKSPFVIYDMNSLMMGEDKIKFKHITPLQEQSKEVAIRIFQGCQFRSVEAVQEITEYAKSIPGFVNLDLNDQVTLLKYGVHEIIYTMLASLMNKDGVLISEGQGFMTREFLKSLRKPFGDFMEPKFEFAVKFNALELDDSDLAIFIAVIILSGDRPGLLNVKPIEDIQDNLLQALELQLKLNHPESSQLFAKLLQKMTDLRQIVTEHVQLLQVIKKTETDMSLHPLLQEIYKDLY

[2] = target: T2, Peroxisome proliferator-activated receptor gamma (Homo sapiens) (UniProt P37231); experiment: Activity at human PPARgamma by luciferase reporter gene assay; set-up: concentration or dose not given beside the values
T2 sequence (whole entry): T1 sequence (P37231 whole entry)

[3] = system: Rattus norvegicus; experiment: Blood clearance at steady state in rat at 2 mg/kg/h, iv; format: ADME, organism-based; set-up: route intravenous; details: in vivo
[4] = Ratio of drug uptake in brain to blood at steady state in rat at 2 mg/kg/h, iv; format: ADME, organism-based; set-up: route intravenous
[5] = system: Brain; experiment: Drug uptake in rat brain at steady state at 2 mg/kg/h, iv; format: ADME, organism-based; set-up: route intravenous; details: in vivo, read-out: Drug uptake
[6] = system: Liver microsomes; experiment: Intrinsic clearance in rat liver microsome; format: ADME
[7] = system: Liver microsomes; experiment: Intrinsic clearance in human liver microsome; format: ADME
[8] = system: Liver; experiment: Intrinsic clearance in rat liver S9 fraction; format: ADME, subcellular
[9] = system: Rattus norvegicus; experiment: Blood clearance in rat at 1 mg/kg, iv; format: ADME, organism-based; set-up: dose 1 mg/kg, route intravenous; details: in vivo
[10] = Ratio of drug uptake in brain to blood in rat at 3 mg/kg, po; format: ADME, organism-based; set-up: dose 3 mg/kg, route oral
[11] = system: Brain; experiment: Drug uptake in rat brain at 3 mg/kg, po; format: ADME, organism-based; set-up: dose 3 mg/kg, route oral; details: in vivo, read-out: Drug uptake

SMILES | EC50 [1] | Activity [2] | further results
CC[C@@H](NC(=O)c1ccc2c(c1)nc(C(C)C)n2Cc1ccc(Cl)c(Cl)c1)c1ccccc1 | 398 nM | 42% | –
CC[C@@H](NC(=O)c1ccc2c(c1)ncn2Cc1ccncc1)c1ccccc1 | 794 nM | 63% | –
CCc1nc2cc(C(=O)N[C@H](CC)c3ccccc3)ccc2n1Cc1ccc(Cl)c(Cl)c1 | 200 nM | 65% | –
CC[C@@H](NC(=O)c1ccc2c(c1)ncn2Cc1ccccn1)c1ccccc1 | 126 nM | 59% | clearance [3]: 78 mL/min/kg; Kp [4]: 0.2; concentration [5]: 228 nM
CC[C@@H](NC(=O)c1ccc2c(c1)nc(C)n2Cc1cccc(Cl)c1)c1ccccc1 | 79.4 nM | 76% | –
Cc1nc2cc(C(=O)NCc3ccccc3)ccc2n1Cc1ccc(Cl)c(Cl)c1 | 398 nM | 83% | –
Cc1nc2cc(C(=O)N[C@H](C)c3ccccc3)ccc2n1Cc1ccc(Cl)c(Cl)c1 | 50.1 nM | 77% | CL [6]: 1.4 mL/min/g; CL [7]: 0.5 mL/min/g; CL [8]: 8.3 mL/min/g; clearance [9]: 75 mL/min/kg; Kp [10]: 0.29; concentration [11]: 12 nM
CC[C@H](NC(=O)c1ccc2c(c1)nc(C)n2Cc1ccc(Cl)c(Cl)c1)c1ccccc1 | 251 nM | 21% | –
CC[C@@H](NC(=O)c1ccc2c(c1)nc(C)n2Cc1ccc(C(N)=O)cc1)c1ccccc1 | 10000 nM | 17% | –
CC[C@@H](NC(=O)c1ccc2c(c1)ncn2Cc1cccnc1)c1ccccc1 | 501 nM | 74% | –
CC[C@@H](NC(=O)c1ccc2c(c1)nc(C(F)(F)F)n2Cc1ccc(Cl)c(Cl)c1)c1ccccc1 | 251 nM | 60% | –

Continued by falling EC50 [1], values first:

EC50 [1] | Activity [2] | SMILES | further results
50.1 nM | 80% | CC[C@@H](NC(=O)c1ccc2c(c1)nc(C)n2Cc1ccccc1Cl)c1ccccc1 | –
39.8 nM | 75% | CC[C@@H](NC(=O)c1ccc2c(c1)nc(C)n2Cc1ccc(Cl)c(Cl)c1)c1ccccc1 | –
6.31 nM | 85% | CC[C@@H](NC(=O)c1ccc2c(c1)ncn2Cc1ccc(F)c(Cl)c1)c1ccccc1 | –
5.01 nM | 75% | CC[C@@H](NC(=O)c1ccc2c(c1)ncn2Cc1ccccc1OC)c1ccccc1 | –
0.794 nM | 74% | CC[C@@H](NC(=O)c1ccc2c(c1)ncn2Cc1ccc(Cl)cc1F)c1ccccc1 | –
0.501 nM | 76% | CC[C@@H](NC(=O)c1ccc2c(c1)ncn2Cc1ncc(Cl)cc1Cl)c1ccccc1 | –
